Data reported in patent US9975882B2, “Heteroaromatic compounds as BTK inhibitors” (Boehringer Ingelheim International GmbH, priority 2015, dated 2018).

Tests used:
[1] = biological target: human full length His-tagged BTK (Homo sapiens (Human), UniProt Q06187); assay: BTK Lanthscreen Eu Kinase Binding assay; conditions: 2 nM BTK
Description: BTK Lanthscreen® Eu Kinase Binding Assay:
A Lanthscreen® Eu Kinase Binding assay (Life Technologies) is performed to quantitate the ability of test compounds to bind to BTK. The assay is based on the binding and displacement of Alexa Fluor647-labeled Kinase Tracer #236 to the ATP-binding site of human full length His-tagged BTK (Life Technologies cat #PV3587) with TR-FRET detection using a europium-labeled anti-His antibody. The assay is assembled in 384-well low volume NBS black plates (Corning) where 2 nM BTK and test compound in DMSO at varying concentrations are pre-incubated for 30 min at 28° C. in assay buffer consisting of 50 mM HEPES, pH 7.4, 10 mM MgCl2, 1 mM EGTA. 100 μM Na3VO4 and 0.01% Brij 35. Then, 2 nM of Eu-anti His antibody and 30 nM Kinase Tracer are added and incubated for 60 min at 28° C. Following incubation, TR-FRET signal is read on an Envision plate reader (Excitation: 340 nm; Emissions: 615 and 665 nm). The 665:615 nm emission ratio is calculated and converted to POC compared to control and blank wells.

[2] = test system: BTK (IL-6 production in primary CD19+ B cells); assay: Inhibition of IL-6 production in B cells co-stimulated with ODN 2006 and anti-hIgD; format: cell-based; conditions: B-cell, anti-human IgD + ODN 2006
Description: Inhibition of IL-6 Production in B Cells Co-Stimulated with ODN 2006 and anti-hIgD
Primary CD19+ B cells (AllCells #PB010F) are thawed and plated in RPMI containing 10% HI FBS in a 384-well tissue cultured plate at 20,000 cells/well. The cells are treated with test compound (0.5% DMSO final concentration) and incubated for 1 hour at 37° C., 5% CO2. Cells are then stimulated with 5 ug/mL Goat F(ab′)2 anti-human IgD (SouthernBiotech #2032) and 2 uM ODN 2006 (InvivoGen #tlrl-2006) and incubated for 18-24 hours at 37° C., 5% CO2. IL-6 in the supernatant is measured using Meso Scale Discovery kit #K211AKB-6.
(§1) Representative compounds of the present invention are tested and show BTK inhibition (Table I). […] Additionally, compounds of the present invention, as represented by examples in Table II, are selective for BTK inhibition over other related kinases. […] In this table the BTK activity is measured by IL-6 production in primary CD19^+ B cells, and the EGFR activity is measured by EGFR phosphorylation in A431 cells.

[3] = biological target: EGFR (EGFR phosphorylation in A431 cells) (Homo sapiens (Human), UniProt P00533); assay: Inhibition of EGFR autophosphorylation in A431 human epithelial cells stimulated with EGF; format: cell-based; conditions: EGF 60 ng/mL, read-out: A431 p-EGFR IC50
Description: Inhibition of EGFR Autophosphorylation in A431 Human Epithelial Cells Stimulated with Epithelial Growth Factor
A431 cells (ATCC #CRL-1555 FZ) are thawed and plated in DMEM containing 10% FBS in a 384-well tissue culture treated plate at 15,000 cells/well. After incubating for 24 hours at 37° C., 5% CO2, the cells are treated with test compound (1% DMSO final concentration) and incubated for 16 hours at 37° C., 5% CO2. EGF (Millipore, 01-107) is added at a final concentration of 60 ng/mL and incubated for 10 minutes. The medium is removed, the cells are lysed, and phospho EGFR is measured (Meso Scale Diagnostics, N31CB-1).
as §1

[4] = biological target: human recombinant BTK (full length, His-tagged) (Homo sapiens (Human), UniProt Q06187); assay: BTK Z'-LYTE assay; format: biochemical; conditions: 25 μM ATP;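 note: FRET readout of kinase phosphorylating a coumarin and fluorescein labelled synthetic peptide, detected via protease sensitivity of unphosphorylated versus phosphorylated substrate, incubated at 22 °C in 384-well plates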
Description: Z′-LYTE™ Assay (Life Technologies):
(§2) The Z′-Lyte assay employs a FRET-based, coupled-enzyme format and is based on the differential sensitivity of phosphorylated and non-phosphorylated peptides to proteolytic Cleavage. The activity of human recombinant BTK (full length, His-tagged), BMX (full length, His-tagged) or Txk (full length, GST-tagged) is estimated by measuring the phosphorylation of a synthetic FRET peptide substrate labeled with Coumarin and Fluorescein. […] Incubations are carried out at 22° C. in black polypropylene 384-well plates (Corning).
(§3) Representative compounds of the present invention are assessed for inhibition of BTK, BMX, and TXK measuring phosphorylation of a substrate (Z′-LYTE™ assay, Life Technologies) and TEC measuring displacement of a “tracer” (Lanthscreen® Eu Kinase Binding assay, Life Technologies).

[5] = biological target: human recombinant full length TEC (His-tagged) (Homo sapiens (Human), UniProt P42680); assay: TEC Lanthscreen Eu Kinase Binding assay; conditions: 1 nM TEC
[6] = biological target: human recombinant Txk (full length, GST-tagged) (Homo sapiens (Human), UniProt P42681); assay: TXK Z'-LYTE assay; conditions: read-out: TXK IC50, 100 μM ATP;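 note: FRET read-out of kinase phosphorylation of a synthetic peptide labelled with Coumarin and Fluorescein, scored by protease sensitivity of unphosphorylated peptide, incubated at 22 °C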
Sequence of human recombinant Txk (full length, GST-tagged) (P42681 whole entry): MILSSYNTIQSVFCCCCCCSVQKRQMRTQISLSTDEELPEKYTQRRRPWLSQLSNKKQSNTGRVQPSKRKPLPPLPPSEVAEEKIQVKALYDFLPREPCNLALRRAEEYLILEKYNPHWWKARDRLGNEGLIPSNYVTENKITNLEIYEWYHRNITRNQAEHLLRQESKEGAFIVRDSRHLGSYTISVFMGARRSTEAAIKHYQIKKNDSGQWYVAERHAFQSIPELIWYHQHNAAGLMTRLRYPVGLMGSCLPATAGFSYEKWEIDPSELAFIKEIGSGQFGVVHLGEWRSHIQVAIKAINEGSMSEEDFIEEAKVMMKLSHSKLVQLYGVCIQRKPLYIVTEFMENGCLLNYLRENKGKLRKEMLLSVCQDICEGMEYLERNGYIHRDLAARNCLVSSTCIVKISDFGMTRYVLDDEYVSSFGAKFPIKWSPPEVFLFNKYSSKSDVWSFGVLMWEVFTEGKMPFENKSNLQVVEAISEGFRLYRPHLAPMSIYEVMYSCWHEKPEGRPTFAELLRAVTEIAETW
Description: Z′-LYTE™ Assay (Life Technologies):
as §2, §3

Sequence of EGFR (EGFR phosphorylation in A431 cells) (P00533 25-1210): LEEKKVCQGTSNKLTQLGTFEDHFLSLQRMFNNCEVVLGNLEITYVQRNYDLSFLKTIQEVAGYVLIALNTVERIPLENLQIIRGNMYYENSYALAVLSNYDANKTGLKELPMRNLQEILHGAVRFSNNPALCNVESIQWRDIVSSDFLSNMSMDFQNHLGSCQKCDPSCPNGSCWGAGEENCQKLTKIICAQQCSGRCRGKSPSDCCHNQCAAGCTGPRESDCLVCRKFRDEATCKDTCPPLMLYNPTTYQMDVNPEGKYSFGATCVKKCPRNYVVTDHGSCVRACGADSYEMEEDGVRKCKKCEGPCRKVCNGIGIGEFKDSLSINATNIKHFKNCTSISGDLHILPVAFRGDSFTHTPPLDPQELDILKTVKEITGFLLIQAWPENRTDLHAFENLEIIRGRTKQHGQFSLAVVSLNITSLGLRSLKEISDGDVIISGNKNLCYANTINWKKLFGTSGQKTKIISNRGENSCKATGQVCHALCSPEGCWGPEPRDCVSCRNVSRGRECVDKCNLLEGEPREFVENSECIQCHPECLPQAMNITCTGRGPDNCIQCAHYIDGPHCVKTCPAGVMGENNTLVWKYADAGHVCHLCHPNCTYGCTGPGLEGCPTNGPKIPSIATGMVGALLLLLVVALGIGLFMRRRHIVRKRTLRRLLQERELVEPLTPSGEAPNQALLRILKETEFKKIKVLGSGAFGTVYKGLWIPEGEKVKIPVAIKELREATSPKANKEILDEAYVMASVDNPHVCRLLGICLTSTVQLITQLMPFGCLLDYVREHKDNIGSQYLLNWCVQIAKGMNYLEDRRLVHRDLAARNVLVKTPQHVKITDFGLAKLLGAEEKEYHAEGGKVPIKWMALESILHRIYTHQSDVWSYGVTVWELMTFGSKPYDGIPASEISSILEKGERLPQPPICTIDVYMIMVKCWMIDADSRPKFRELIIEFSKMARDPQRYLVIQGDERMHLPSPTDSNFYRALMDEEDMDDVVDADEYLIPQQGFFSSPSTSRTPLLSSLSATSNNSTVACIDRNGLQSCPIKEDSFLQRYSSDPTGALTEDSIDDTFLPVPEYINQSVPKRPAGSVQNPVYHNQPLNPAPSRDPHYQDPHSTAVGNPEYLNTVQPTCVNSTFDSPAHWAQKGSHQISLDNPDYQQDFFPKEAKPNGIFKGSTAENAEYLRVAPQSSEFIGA
Sequence of human full length His-tagged BTK (Q06187 whole entry): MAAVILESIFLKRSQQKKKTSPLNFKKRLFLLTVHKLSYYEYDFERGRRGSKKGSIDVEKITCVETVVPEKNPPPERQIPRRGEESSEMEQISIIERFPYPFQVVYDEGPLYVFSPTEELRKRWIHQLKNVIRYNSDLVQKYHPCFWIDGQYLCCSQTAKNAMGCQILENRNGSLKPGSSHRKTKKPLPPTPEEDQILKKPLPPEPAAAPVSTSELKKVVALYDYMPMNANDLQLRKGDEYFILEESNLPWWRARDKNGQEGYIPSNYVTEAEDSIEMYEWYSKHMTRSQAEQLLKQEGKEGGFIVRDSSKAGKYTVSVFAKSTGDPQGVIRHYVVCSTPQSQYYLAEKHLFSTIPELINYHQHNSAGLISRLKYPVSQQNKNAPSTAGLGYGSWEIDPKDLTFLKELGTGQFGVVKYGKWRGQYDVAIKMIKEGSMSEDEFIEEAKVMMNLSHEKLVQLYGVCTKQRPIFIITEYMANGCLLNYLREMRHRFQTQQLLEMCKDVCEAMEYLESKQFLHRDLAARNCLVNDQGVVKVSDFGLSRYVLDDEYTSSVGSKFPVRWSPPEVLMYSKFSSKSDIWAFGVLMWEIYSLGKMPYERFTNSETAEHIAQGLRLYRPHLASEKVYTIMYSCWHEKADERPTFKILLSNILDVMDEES
Sequence of human recombinant BTK (full length, His-tagged) (Q06187 whole entry): as above
Sequence of human recombinant full length TEC (His-tagged) (P42680 whole entry): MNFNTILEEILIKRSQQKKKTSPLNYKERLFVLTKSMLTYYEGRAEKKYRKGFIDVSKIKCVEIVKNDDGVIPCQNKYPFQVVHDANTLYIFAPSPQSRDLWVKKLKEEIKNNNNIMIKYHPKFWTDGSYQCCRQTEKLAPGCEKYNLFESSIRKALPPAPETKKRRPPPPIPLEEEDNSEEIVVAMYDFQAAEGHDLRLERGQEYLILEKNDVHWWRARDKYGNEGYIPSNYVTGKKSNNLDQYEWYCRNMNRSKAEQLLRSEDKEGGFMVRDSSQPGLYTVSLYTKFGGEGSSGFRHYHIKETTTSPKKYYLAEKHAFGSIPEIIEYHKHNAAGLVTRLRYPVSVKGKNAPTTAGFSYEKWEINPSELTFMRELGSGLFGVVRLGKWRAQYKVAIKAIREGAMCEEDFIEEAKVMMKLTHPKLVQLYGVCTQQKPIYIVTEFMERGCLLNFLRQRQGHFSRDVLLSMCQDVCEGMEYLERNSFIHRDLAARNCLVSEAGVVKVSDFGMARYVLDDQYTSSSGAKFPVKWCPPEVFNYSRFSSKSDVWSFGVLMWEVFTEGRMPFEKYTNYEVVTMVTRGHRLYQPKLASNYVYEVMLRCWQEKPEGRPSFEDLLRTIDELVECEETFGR

IC50 [1] | IC50 [2] | IC50 [3] | IC50 [4] | IC50 [5] | IC50 [6] | SMILES
0.5 nM | 0.6 nM | > 10000 nM | 1.7 nM | 35 nM | 100 nM | CC#CC(=O)N1CC[C@]2(C1)C[C@H](n1nc(-c3cnn(Cc4ccccc4F)c3)c(C(N)=O)c1N)C2 [Example 60]
16 nM | – | – | – | – | – | C=CC(=O)N1CC2(CC(n3nc(-c4cnn(Cc5ccccc5)c4)c(C(N)=O)c3N)C2)C1 [Example 48]
0.5 nM | 1.1 nM | > 10000 nM | 1.7 nM | 92 nM | – | CC#CC(=O)N1CC[C@]2(C1)C[C@H](n1nc(-c3cnn(Cc4cccc(C(F)(F)F)n4)c3)c(C(N)=O)c1N)C2 [Example 14]
0.3 nM | 0.7 nM | > 10000 nM | 1.4 nM | 20 nM | 78 nM | CC#CC(=O)N1CC[C@]2(C1)C[C@H](n1nc(-c3cnn(Cc4ccccc4)c3)c(C(N)=O)c1N)C2 [Example 44]
– | 1.2 nM | > 10000 nM | – | – | – | CC#CC(=O)N1CC[C@]2(C1)C[C@H](n1nc(-c3cnn(Cc4cccc(C(F)(F)F)c4Cl)c3)c(C(N)=O)c1N)C2 [Example 3]
0.4 nM | 1.2 nM | > 10000 nM | 1.3 nM | 48 nM | 59 nM | CC#CC(=O)N1CC[C@]2(C1)C[C@H](n1nc(-c3cnn(Cc4cccc(C(F)(F)F)c4F)c3)c(C(N)=O)c1N)C2 [Example 33]
– | 8 nM | > 10000 nM | – | – | – | CC#CC(=O)N1CC[C@]2(C1)C[C@H](n1nc(-c3cnn([C@H](C)c4cccc(C(F)(F)F)c4)c3)c(C(N)=O)c1N)C2 [Example 18]
0.9 nM | – | – | – | – | – | CC#CC(=O)N1CC[C@]2(C1)C[C@H](n1nc(-c3cn(Cc4cccc(C(F)F)c4)nc3C)c(C(N)=O)c1N)C2 [Example 35]
1.1 nM | – | – | – | – | – | CC#CC(=O)N1CC[C@]2(C1)C[C@H](n1nc(-c3cnn(C(C)c4cccc(C(F)(F)F)c4)c3)c(C(N)=O)c1N)C2 (some centres unmarked) [Example 15]
0.3 nM | – | – | 1.2 nM | 39 nM | 95 nM | CC#CC(=O)N1CC[C@]2(C1)C[C@H](n1nc(-c3cnn(Cc4cccc(F)c4)c3)c(C(N)=O)c1N)C2 [Example 28]
7.9 nM | – | – | – | – | – | CC#CC(=O)N1CC2(CC(n3nc(-c4cnn(Cc5cc(C)cc(C(F)(F)F)c5)c4)c(C(N)=O)c3N)C2)C1 [Example 46]
3 nM | – | – | – | – | – | CC#CC(=O)N1CC[C@]2(C1)C[C@H](n1nc(-c3cnn(Cc4cc(C)cc(C(F)(F)F)c4)c3)c(C(N)=O)c1N)C2 [Example 38]
78 nM | – | – | – | – | – | C=CC(=O)N1CC[C@]2(C1)C[C@H](n1nc(-c3cnn(Cc4cccc(C(F)(F)F)c4)c3)c(C(N)=O)c1N)C2 [Example 42]
0.9 nM | – | – | – | – | – | CC#CC(=O)N1CC[C@]2(C1)C[C@H](n1nc(-c3cnn(Cc4cc(Cl)cc(C(F)(F)F)c4)c3)c(C(N)=O)c1N)C2 [Example 39]
6 nM | – | – | – | – | – | CC#CC(=O)N1CC2(CC(n3nc(-c4cnn(Cc5ccccc5)c4)c(C(N)=O)c3N)C2)C1 [Example 45]
0.5 nM | 1.3 nM | > 10000 nM | 1.9 nM | – | – | CC#CC(=O)N1CC[C@]2(C1)C[C@H](n1nc(-c3cnn(Cc4cc(C(F)(F)F)ccc4F)c3)c(C(N)=O)c1N)C2 [Example 32]
1.8 nM | – | – | – | – | – | CC#CC(=O)N1CC[C@]2(C1)C[C@H](n1nc(-c3cnn(Cc4cc(C(F)(F)F)ccc4C)c3)c(C(N)=O)c1N)C2 [Example 4]
1.7 nM | 3.4 nM | > 10000 nM | 6.6 nM | 66 nM | – | CC#CC(=O)N1CC[C@]2(C1)C[C@H](n1nc(-c3cnn(Cc4cccc(Cl)c4)c3)c(C(N)=O)c1NC)C2 [Example 27]
– | 2.5 nM | > 10000 nM | – | – | – | CC#CC(=O)N1CC[C@]2(C1)C[C@H](n1nc(-c3cnn(Cc4cc(C(F)(F)F)ccc4Cl)c3)c(C(N)=O)c1N)C2 [Example 8]
45 nM | – | – | – | – | – | CC#CC(=O)N1CC2(CC(n3nc(-c4cnn(Cc5cc(C(F)(F)F)cc(C(F)(F)F)c5)c4)c(C(N)=O)c3N)C2)C1 [Example 49]

IC50 [1] | IC50 [2] | IC50 [3] | IC50 [4] | IC50 [5] | IC50 [6] | SMILES
0.4 nM | – | – | – | – | – | CC#CC(=O)N1CC[C@]2(C1)C[C@H](n1nc(-c3cnn(Cc4ccc(C)c(C(F)(F)F)c4)c3)c(C(N)=O)c1N)C2 [Example 5]
– | 72 nM | > 10000 nM | – | – | – | CC#CC(=O)N1CC[C@]2(C1)C[C@H](n1nc(-c3cnn(Cc4cc(C(F)(F)F)ccc4OC)c3)c(C(N)=O)c1N)C2 [Example 7]
0.8 nM | – | – | – | – | – | CC#CC(=O)N1CC[C@]2(C1)C[C@H](n1nc(-c3cnn(Cc4cc(F)cc(C(F)(F)F)c4)c3)c(C(N)=O)c1N)C2 [Example 31]
0.8 nM | – | – | 3.6 nM | – | 92 nM | CC#CC(=O)N1CC[C@]2(C1)C[C@H](n1nc(-c3cnn(Cc4ccc(F)cc4)c3)c(C(N)=O)c1N)C2 [Example 29]
3 nM | – | – | – | – | – | C=CC(=O)N1CC[C@]2(C1)C[C@H](n1nc(-c3cnn(Cc4cccc(C5CC5)c4)c3)c(C(N)=O)c1N)C2 [Example 43]
0.3 nM | 0.4 nM | > 10000 nM | 0.8 nM | – | 68 nM | CC#CC(=O)N1CC[C@]2(C1)C[C@H](n1nc(-c3cnn(Cc4cccc(F)c4F)c3)c(C(N)=O)c1N)C2 [Example 59]
0.6 nM | – | – | – | – | – | CC#CC(=O)N1CC[C@]2(C1)C[C@H](n1nc(-c3cnn(Cc4ccccc4OC(F)(F)F)c3)c(C(N)=O)c1N)C2 [Example 9]
0.3 nM | – | – | – | – | – | NC(=O)c1c(-c2cnn(Cc3ccccc3)c2)nn([C@H]2C[C@@]3(CCN(C(=O)C#CC4CC4)C3)C2)c1N [Example 41]
0.7 nM | – | – | – | – | – | CC#CC(=O)N1CC[C@]2(C1)C[C@H](n1nc(-c3cn(Cc4cccc(Cl)c4)nc3C)c(C(N)=O)c1N)C2 [Example 34]
0.8 nM | – | – | – | – | – | CC#CC(=O)N1CC[C@]2(C1)C[C@H](n1nc(-c3cn(Cc4cccc(C5CC5)c4)nc3C)c(C(N)=O)c1N)C2 [Example 37]
0.7 nM | – | – | 1.8 nM | 73 nM | 150 nM | CC#CC(=O)N1CC[C@]2(C1)C[C@H](n1nc(-c3cnn(Cc4ccccc4C#N)c3)c(C(N)=O)c1N)C2 [Example 11]
22 nM | – | – | – | – | – | C=CC(=O)N1CC[C@]2(C1)C[C@H](n1nc(-c3cnn(Cc4cccc(C(F)(F)F)c4)c3)c(C(N)=O)c1NC)C2 [Example 20]
– | 3.4 nM | > 10000 nM | – | – | – | CC#CC(=O)N1CC[C@]2(C1)C[C@H](n1nc(-c3cnn(Cc4ccc(Cl)c(C(F)(F)F)c4)c3)c(C(N)=O)c1N)C2 [Example 58]
36 nM | – | – | – | – | – | C=CC(=O)N1CC[C@]2(C1)C[C@H](n1nc(-c3cnn(Cc4ccccc4)c3)c(C(N)=O)c1N)C2 [Example 1]
0.8 nM | – | – | – | – | – | CC#CC(=O)N1CC[C@]2(C1)C[C@H](n1nc(-c3cnn(Cc4cccc(C5CC5)c4)c3)c(C(N)=O)c1NC)C2 [Example 24]
– | 0.3 nM | > 10000 nM | – | – | – | CC#CC(=O)N1CC[C@]2(C1)C[C@H](n1nc(-c3cnn(Cc4cccc(Cl)c4)c3)c(C(N)=O)c1N)C2 [Example 2]
4.2 nM | – | – | – | – | – | CC#CC(=O)N1CC2(CC(n3nc(-c4cnn(Cc5cc(C)cc(C)c5)c4)c(C(N)=O)c3N)C2)C1 [Example 40]
0.9 nM | – | – | – | – | – | CC#CC(=O)N1CC[C@]2(C1)C[C@H](n1nc(-c3cnn(Cc4cc(F)ccc4C(F)(F)F)c3)c(C(N)=O)c1N)C2 [Example 57]
9.1 nM | – | – | – | – | – | CC#CC(=O)N1CC[C@]2(C1)C[C@H](n1nc(-c3cnn(Cc4ccnc(C(F)(F)F)c4)c3)c(C(N)=O)c1N)C2 [Example 13]
